According to patent US10351575B2, “Bicyclic urea, thiourea, guanidine and cyanoguanidine compounds useful for the treatment of pain” (Array BioPharma Inc., priority 2012, dated 2019):

What was measured:
Test in all cases: KinaseProfiler off-target kinase profiling
Type in all cases: biochemical
Details in all cases: 10 μM, ATP near Km
ALK4 = ALK4 (Homo sapiens (Human), UniProt P36896)
Experimental: (§1) Representative compounds (Examples 12, 32, 26 and 2) of the invention were tested for off-target kinase activity at a concentration of 10 μM by Millipore, Inc. in their KinaseProfiler™ service against all the kinases available in their full kinase panel. Compounds were run in duplicate at a concentration of ATP near the Km for each individual kinase according to Millipore's specifications. The results are shown in Table B. Data are reported as percent of control (POC) and are the average of the two replicates.

AURKA = AURKA (Homo sapiens (Human), UniProt O14965)
Experimental: as §1

BLK_m = BLK_m (Mus musculus (Mouse), UniProt P16277)
Experimental: as §1

Bmx = Bmx (Homo sapiens (Human), UniProt P51813)
Experimental: as §1

CAMK4 = CAMK4 (Homo sapiens (Human), UniProt Q16566)
Experimental: as §1

CDK5/p25 = CDK5/p25 (Homo sapiens (Human), UniProt Q00535)
Experimental: as §1

CDK5/p35 = CDK5/p35 (Homo sapiens (Human), UniProt Q00535)
Experimental: as §1

CK1_y = test system: CK1_y
Experimental: as §1

CK1gamma1 = CK1gamma1 (Homo sapiens (Human), UniProt Q9HCP0)
Experimental: as §1

DAPK3 = DAPK3 (Homo sapiens (Human), UniProt O43293)
Experimental: as §1

DDR2 = DDR2 (Homo sapiens (Human), UniProt Q16832)
Experimental: as §1

DRAK1 = DRAK1 (Homo sapiens (Human), UniProt Q9UEE5)
Experimental: as §1

EphA2 = EphA2 (Homo sapiens (Human), UniProt P29317)
Experimental: as §1

GRK5 = GRK5 (Homo sapiens (Human), UniProt P34947)
Experimental: as §1

GRK7 = GRK7 (Homo sapiens (Human), UniProt Q8WTQ7)
Chain of GRK7 (Q8WTQ7 whole entry): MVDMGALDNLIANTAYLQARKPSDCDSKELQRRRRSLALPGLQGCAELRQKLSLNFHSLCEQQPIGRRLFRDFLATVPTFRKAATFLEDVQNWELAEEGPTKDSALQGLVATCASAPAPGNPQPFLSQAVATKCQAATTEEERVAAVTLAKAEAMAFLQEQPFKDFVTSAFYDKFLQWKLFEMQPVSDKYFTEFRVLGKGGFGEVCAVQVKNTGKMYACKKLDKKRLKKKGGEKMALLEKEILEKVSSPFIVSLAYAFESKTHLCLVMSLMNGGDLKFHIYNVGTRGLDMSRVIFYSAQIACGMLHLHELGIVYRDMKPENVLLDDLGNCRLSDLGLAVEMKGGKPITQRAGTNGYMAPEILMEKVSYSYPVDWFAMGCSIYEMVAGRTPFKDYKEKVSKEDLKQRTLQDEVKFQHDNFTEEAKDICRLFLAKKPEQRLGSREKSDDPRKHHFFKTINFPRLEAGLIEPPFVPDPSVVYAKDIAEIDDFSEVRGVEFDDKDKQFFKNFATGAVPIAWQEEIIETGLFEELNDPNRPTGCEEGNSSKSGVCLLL
Experimental: as §1

IGF-1R = IGF-1R (Homo sapiens (Human), UniProt P08069)
Experimental: as §1

IKKalpha = IKKalpha (Homo sapiens (Human), UniProt O15111)
Experimental: as §1

ITK = ITK (Homo sapiens (Human), UniProt Q08881)
Experimental: as §1

LKB1 = LKB1 (Homo sapiens (Human), UniProt Q15831)
Experimental: as §1

Lyn = Lyn (Homo sapiens (Human), UniProt P07948)
Experimental: as §1

MAPKAP-K5 = MAPKAP-K5 (Homo sapiens (Human), UniProt Q8IW41)
Chain of MAPKAP-K5 (Q8IW41 whole entry): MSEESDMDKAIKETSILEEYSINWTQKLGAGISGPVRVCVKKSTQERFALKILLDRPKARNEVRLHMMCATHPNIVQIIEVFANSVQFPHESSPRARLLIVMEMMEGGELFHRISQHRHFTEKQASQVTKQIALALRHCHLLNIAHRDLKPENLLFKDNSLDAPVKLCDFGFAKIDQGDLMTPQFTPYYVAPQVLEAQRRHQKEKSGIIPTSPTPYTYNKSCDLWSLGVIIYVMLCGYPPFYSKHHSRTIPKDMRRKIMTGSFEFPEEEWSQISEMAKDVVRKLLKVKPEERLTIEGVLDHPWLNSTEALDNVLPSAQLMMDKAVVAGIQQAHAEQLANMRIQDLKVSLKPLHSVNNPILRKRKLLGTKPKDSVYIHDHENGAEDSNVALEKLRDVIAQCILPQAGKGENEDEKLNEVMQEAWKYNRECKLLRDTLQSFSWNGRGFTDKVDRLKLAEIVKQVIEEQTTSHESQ
Experimental: as §1

MELK = MELK (Homo sapiens (Human), UniProt Q14680)
Experimental: as §1

MKK6 = MKK6 (Homo sapiens (Human), UniProt P52564)
Experimental: as §1

MRCKbeta = MRCKbeta (Homo sapiens (Human), UniProt Q9Y5S2)
Chain of MRCKbeta (Q9Y5S2 whole entry): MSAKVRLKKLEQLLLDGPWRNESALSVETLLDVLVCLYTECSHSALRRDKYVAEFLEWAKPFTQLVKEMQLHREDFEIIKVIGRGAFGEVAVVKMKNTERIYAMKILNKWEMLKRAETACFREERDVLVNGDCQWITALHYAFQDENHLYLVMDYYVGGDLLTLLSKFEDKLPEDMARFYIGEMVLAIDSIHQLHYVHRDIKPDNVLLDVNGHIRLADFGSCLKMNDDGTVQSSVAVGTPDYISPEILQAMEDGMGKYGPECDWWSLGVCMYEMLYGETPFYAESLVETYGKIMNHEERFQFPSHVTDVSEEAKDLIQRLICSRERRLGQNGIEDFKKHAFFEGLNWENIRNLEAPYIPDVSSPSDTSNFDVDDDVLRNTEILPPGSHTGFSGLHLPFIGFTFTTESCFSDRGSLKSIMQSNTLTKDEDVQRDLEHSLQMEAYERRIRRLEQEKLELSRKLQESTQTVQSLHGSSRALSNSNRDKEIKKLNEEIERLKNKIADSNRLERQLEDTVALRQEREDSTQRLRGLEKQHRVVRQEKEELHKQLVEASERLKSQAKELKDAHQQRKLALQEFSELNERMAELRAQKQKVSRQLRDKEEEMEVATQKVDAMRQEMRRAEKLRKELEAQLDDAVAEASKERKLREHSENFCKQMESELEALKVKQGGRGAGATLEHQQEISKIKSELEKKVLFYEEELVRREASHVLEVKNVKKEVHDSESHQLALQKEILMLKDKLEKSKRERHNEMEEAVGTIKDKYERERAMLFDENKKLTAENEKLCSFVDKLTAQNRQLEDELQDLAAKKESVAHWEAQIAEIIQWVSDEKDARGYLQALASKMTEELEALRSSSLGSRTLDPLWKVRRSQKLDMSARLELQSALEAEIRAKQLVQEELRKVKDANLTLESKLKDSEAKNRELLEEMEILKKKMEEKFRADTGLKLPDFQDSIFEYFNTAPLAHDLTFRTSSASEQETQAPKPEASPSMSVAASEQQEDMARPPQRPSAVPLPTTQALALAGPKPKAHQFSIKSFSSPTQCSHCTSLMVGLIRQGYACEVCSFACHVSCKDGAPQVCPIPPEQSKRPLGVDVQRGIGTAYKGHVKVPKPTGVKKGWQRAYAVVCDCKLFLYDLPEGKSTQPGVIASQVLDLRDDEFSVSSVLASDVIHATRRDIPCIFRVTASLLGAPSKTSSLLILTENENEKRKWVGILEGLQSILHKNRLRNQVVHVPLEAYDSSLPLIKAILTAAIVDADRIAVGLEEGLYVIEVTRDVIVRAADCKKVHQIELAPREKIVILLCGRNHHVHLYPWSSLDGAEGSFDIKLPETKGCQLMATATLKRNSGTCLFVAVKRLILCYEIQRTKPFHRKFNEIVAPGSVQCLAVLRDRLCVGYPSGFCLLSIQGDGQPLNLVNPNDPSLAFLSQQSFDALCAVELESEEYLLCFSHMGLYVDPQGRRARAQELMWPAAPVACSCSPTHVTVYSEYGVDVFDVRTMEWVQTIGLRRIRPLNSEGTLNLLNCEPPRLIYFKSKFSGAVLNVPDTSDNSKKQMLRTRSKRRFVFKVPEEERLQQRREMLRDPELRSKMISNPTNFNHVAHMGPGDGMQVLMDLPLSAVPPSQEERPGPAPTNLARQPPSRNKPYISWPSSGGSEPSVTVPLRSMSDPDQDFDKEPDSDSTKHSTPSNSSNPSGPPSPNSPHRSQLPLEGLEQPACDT
Experimental: as §1

MSSK1 = MSSK1 (Homo sapiens (Human), UniProt Q9UPE1)
Chain of MSSK1 (Q9UPE1 whole entry): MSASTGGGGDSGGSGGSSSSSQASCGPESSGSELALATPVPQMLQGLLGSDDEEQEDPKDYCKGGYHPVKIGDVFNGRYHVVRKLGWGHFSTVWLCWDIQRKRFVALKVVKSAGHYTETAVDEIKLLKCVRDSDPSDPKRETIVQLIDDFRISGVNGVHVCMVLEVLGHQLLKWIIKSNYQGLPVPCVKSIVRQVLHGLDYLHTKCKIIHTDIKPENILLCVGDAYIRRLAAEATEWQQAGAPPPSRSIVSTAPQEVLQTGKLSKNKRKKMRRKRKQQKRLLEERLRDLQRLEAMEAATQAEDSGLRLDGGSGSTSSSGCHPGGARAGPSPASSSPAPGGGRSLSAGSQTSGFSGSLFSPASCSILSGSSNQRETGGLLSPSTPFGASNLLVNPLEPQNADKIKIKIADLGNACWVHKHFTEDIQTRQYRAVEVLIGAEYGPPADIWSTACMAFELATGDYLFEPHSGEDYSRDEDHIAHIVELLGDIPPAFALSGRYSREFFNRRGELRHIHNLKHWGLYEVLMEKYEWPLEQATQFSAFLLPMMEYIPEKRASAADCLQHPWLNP
Experimental: as §1

NEK6 = NEK6 (Homo sapiens (Human), UniProt Q9HC98)
Experimental: as §1

PDGFRalpha = PDGFRalpha (Homo sapiens (Human), UniProt P16234)
Experimental: as §1

PDGFRbeta = PDGFRbeta (Homo sapiens (Human), UniProt P09619)
Experimental: as §1

PKCiota = PKCiota (Homo sapiens (Human), UniProt P41743)
Experimental: as §1

PRK2 = PRK2 (Homo sapiens (Human), UniProt Q16513)
Chain of PRK2 (Q16513 whole entry): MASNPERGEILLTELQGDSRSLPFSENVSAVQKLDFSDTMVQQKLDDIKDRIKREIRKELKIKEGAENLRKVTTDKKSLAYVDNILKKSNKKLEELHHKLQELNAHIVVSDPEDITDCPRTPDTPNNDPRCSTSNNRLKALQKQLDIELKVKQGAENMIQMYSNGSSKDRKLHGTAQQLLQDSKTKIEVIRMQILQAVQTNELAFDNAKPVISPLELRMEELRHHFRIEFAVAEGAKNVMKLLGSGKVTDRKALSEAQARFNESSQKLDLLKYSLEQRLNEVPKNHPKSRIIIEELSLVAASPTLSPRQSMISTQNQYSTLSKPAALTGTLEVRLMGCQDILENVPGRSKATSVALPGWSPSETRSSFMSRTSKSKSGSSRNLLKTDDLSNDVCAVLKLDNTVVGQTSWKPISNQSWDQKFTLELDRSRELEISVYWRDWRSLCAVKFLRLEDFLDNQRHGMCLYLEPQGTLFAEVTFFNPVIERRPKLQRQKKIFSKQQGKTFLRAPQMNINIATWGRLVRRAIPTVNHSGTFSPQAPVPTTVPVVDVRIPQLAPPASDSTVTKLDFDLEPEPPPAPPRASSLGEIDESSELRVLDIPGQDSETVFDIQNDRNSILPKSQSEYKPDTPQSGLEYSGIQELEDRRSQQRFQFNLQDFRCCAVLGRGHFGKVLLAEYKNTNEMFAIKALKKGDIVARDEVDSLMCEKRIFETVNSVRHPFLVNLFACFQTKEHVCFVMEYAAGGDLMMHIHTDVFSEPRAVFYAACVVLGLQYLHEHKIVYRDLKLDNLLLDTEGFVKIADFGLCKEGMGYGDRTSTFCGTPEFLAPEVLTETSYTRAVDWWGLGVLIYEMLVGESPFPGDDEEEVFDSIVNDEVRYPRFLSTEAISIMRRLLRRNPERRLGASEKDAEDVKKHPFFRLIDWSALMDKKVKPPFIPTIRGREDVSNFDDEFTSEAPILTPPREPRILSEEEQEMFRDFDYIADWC
Experimental: as §1

RIPK2 = RIPK2 (Homo sapiens (Human), UniProt O43353)
Experimental: as §1

ROCK-II = ROCK-II (Homo sapiens (Human), UniProt O75116)
Experimental: as §1

Rsk1 = Rsk1 (Homo sapiens (Human), UniProt Q15418)
Experimental: as §1

Rsk4 = Rsk4 (Homo sapiens (Human), UniProt Q9UK32)
Experimental: as §1

SGK3 = SGK3 (Homo sapiens (Human), UniProt Q96BR1)
Experimental: as §1

SRPK2 = SRPK2 (Homo sapiens (Human), UniProt P78362)
Experimental: as §1

TAK1 = TAK1 (Homo sapiens (Human), UniProt O43318)
Experimental: as §1

TEC Activated = TEC Activated (Homo sapiens (Human), UniProt P42680)
Chain of TEC Activated (P42680 whole entry): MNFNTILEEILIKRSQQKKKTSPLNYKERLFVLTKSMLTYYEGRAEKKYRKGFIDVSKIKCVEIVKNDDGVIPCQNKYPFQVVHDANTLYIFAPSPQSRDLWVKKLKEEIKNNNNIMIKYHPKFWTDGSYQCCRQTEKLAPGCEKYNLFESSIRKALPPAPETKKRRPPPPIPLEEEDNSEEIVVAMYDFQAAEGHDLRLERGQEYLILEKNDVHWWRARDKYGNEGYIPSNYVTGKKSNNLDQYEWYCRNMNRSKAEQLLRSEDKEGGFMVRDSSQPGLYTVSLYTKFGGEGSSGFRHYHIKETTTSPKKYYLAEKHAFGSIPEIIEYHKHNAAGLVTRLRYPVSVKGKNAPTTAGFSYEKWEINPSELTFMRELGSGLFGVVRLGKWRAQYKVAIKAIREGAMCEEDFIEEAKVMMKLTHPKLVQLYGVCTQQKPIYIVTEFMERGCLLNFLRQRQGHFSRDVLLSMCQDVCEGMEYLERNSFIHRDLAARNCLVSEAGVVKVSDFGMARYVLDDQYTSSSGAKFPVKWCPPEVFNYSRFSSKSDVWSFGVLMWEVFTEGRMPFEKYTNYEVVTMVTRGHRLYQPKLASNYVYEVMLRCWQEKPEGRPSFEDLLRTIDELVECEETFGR
Experimental: as §1

TSSK2 = TSSK2 (Homo sapiens (Human), UniProt Q96PF2)
Experimental: as §1

SMILES	Avg. POC (ALK4) [POC]	Avg. POC (AURKA) [POC]	Avg. POC (BLK_m) [POC]	Avg. POC (Bmx) [POC]	Avg. POC (CAMK4) [POC]	Avg. POC (CDK5/p25) [POC]	Avg. POC (CDK5/p35) [POC]	Avg. POC (CK1gamma1) [POC]	Avg. POC (DAPK3) [POC]	Avg. POC (DDR2) [POC]	Avg. POC (DRAK1) [POC]	Avg. POC (EphA2) [POC]	Avg. POC (GRK5) [POC]	Avg. POC (GRK7) [POC]	Avg. POC (IGF-1R) [POC]	Avg. POC (IKKalpha) [POC]	Avg. POC (ITK) [POC]	Avg. POC (LKB1) [POC]	Avg. POC (Lyn) [POC]	Avg. POC (MAPKAP-K5) [POC]	also measured
Cc1c(-c2cnn(C)c2)nn(-c2ccccc2)c1NC(=O)N[C@H]1CCCc2ccccc21 [Example 2, (S)-1-(1′,4-dimethyl-1-phenyl-1H,1′H-3,4′-bipyrazol-5-yl)-3-(1,2,3,4-tetrahydronaphthalen-1-yl)urea]	98.5	126	126	113	137.5	107.5	124	116.5	125.5	113	108.5	129	106.5	108.5	18	141.5	117.5	103.5	115	113.5	Avg. POC (CK1_y): 100.5 POC; Avg. POC (MELK): 142 POC; Avg. POC (MKK6): 130 POC; Avg. POC (MRCKbeta): 129.5 POC; Avg. POC (MSSK1): 116 POC; Avg. POC (NEK6): 125.5 POC; Avg. POC (PDGFRalpha): 123 POC; Avg. POC (PDGFRbeta): 149 POC; Avg. POC (PKCiota): 95.5 POC; Avg. POC (PRK2): 128 POC; Avg. POC (RIPK2): 108 POC; Avg. POC (ROCK-II): 108 POC; Avg. POC (Rsk1): 117 POC; Avg. POC (Rsk4): 140 POC; Avg. POC (SGK3): 137.5 POC; Avg. POC (SRPK2): 106 POC; Avg. POC (TAK1): 106 POC; Avg. POC (TEC Activated): 153 POC; Avg. POC (TSSK2): 118.5 POC
Cc1c(-c2cnn(C)c2)nn(-c2ccccc2)c1NC(=O)NC1CCOc2cc(F)ccc21 (centres unmarked) [Example 12, 1-(1′,4-dimethyl-1-phenyl-1H,1′H-[3,4′-bipyrazol]-5-yl)-3-(7-fluorochroman-4-yl)urea]	101	111	112	115.5	113.5	104	106.5	98.5	103	107	114	113	83.5	117	80	119.5	114.5	91	104.5	96	Avg. POC (CK1_y): 101 POC; Avg. POC (MELK): 67 POC; Avg. POC (MKK6): 123 POC; Avg. POC (MRCKbeta): 103.5 POC; Avg. POC (MSSK1): 112.5 POC; Avg. POC (NEK6): 121 POC; Avg. POC (PDGFRalpha): 104.5 POC; Avg. POC (PDGFRbeta): 125.5 POC; Avg. POC (PKCiota): 69.5 POC; Avg. POC (PRK2): 97.5 POC; Avg. POC (RIPK2): 99 POC; Avg. POC (ROCK-II): 99 POC; Avg. POC (Rsk1): 107.5 POC; Avg. POC (Rsk4): 101 POC; Avg. POC (SGK3): 143.5 POC; Avg. POC (SRPK2): 101.5 POC; Avg. POC (TAK1): 97 POC; Avg. POC (TEC Activated): 122.5 POC; Avg. POC (TSSK2): 139 POC
Cc1c(-c2ccc(=O)n(C)c2)nn(-c2ccccc2)c1NC(=O)NC1CN(CC(F)(F)F)Cc2ccccc21 (centres unmarked) [Example 26, 1-(4-methyl-3-(1-methyl-6-oxo-1,6-dihydropyridin-3-yl)-1-phenyl-1H-pyrazol-5-yl)-3-(2-(2,2,2-trifluoroethyl)-1,2,3,4-tetrahydroisoquinolin-4-yl)urea]	102.5	107.5	103.5	109.5	121	109	110.5	106.5	103	111	125	102	86	118	60.5	112.5	122	95	110.5	101.5	Avg. POC (MELK): 86 POC; Avg. POC (MKK6): 121.5 POC; Avg. POC (MRCKbeta): 110 POC; Avg. POC (MSSK1): 120.5 POC; Avg. POC (NEK6): 123.5 POC; Avg. POC (PDGFRalpha): 104.5 POC; Avg. POC (PDGFRbeta): 122.5 POC; Avg. POC (PKCiota): 85.5 POC; Avg. POC (PRK2): 110.5 POC; Avg. POC (RIPK2): 98 POC; Avg. POC (ROCK-II): 110 POC; Avg. POC (Rsk1): 121 POC; Avg. POC (Rsk4): 99.5 POC; Avg. POC (SGK3): 104 POC; Avg. POC (SRPK2): 106 POC; Avg. POC (TAK1): 108.5 POC; Avg. POC (TEC Activated): 113.5 POC; Avg. POC (TSSK2): 128 POC
